Results reported in ChEMBL document CHEMBL5150033, “Synthesis, evaluation and mechanism exploration of 2-(N-(3-nitrophenyl)-N-phenylsulfonyl)aminoacetohydroxamic acids as novel urease inhibitors” (Bioorg Med Chem Lett, 2022).
pIC50, pKd, pKi: −log10 of the molar value. Active and inactive are the calls of the source. The calls are words filed in the database; no cut-off is given here.

Columns and labels:
[1] = biological target: T1, Urease subunit alpha/Urease subunit beta (Helicobacter pylori (strain ATCC 700392 / 26695) (Campylobacterpylori), UniProt P69996); assay: Inhibition of Helicobacter pylori urease; type: protein-complex assay
HepG2 = assay: Antiproliferative activity against human HepG2 cells assessed as reduction in cell viability at 250 ug/ml by MTT assay relative to control; type: functional; settings: dose 250 µg/ml
SGC-7901 = assay: Antiproliferative activity against human SGC-7901 cells assessed as reduction in cell viability at 250 ug/ml by MTT assay relative to control; type: functional; settings: dose 250 µg/ml
K562 = assay: Antiproliferative activity against human K562 cells assessed as reduction in cell viability at 250 ug/ml by MTT assay relative to control; type: functional; settings: dose 250 µg/ml
[2] = biological target: T2, Urease subunit alpha/Urease subunit beta (Helicobacter pylori (strain ATCC 700392 / 26695) (Campylobacterpylori)) (UniProt P69996+P14916); assay: Potency index, ratio of acetohydroxamic acid IC50 to test compound IC50 for inhibition of Helicobacter pylori urease; type: protein-complex assay
[3] = biological target: T1, Urease subunit alpha/Urease subunit beta; assay: Binding affinity to Helicobacter pyroli urease assessed as dissociation constant by surface plasmon resonance assay; type: protein-complex assay
[4] = biological target: T1, Urease subunit alpha/Urease subunit beta; assay: Mixed type inhibition of Helicobacter pyroli urease assessed as dissociation constant for EI complex by microplate reader analysis; type: protein-complex assay
[5] = biological target: T1, Urease subunit alpha/Urease subunit beta; assay: Mixed type inhibition of Helicobacter pyroli urease assessed as dissociation constant for ESI complex by microplate reader analysis; type: protein-complex assay
[6] = biological target: T2, Urease subunit alpha/Urease subunit beta (Helicobacter pylori (strain ATCC 700392 / 26695) (Campylobacterpylori)); assay: Inhibition of Helicobacter pyroli urease at 100 ug/ml […]; type: protein-complex assay; settings: dose 100.0 µg/ml, time <= 120.0 min, TDE = time-dependent effect
[7] = biological target: T2, Urease subunit alpha/Urease subunit beta (Helicobacter pylori (strain ATCC 700392 / 26695) (Campylobacterpylori)); assay: Inhibition of Helicobacter pyroli urease assessed as maximum inhibition at 100 ug/ml measured after 50 mins […]; type: protein-complex assay; settings: dose 100.0 µg/ml

T1 sequence (P69996 whole entry): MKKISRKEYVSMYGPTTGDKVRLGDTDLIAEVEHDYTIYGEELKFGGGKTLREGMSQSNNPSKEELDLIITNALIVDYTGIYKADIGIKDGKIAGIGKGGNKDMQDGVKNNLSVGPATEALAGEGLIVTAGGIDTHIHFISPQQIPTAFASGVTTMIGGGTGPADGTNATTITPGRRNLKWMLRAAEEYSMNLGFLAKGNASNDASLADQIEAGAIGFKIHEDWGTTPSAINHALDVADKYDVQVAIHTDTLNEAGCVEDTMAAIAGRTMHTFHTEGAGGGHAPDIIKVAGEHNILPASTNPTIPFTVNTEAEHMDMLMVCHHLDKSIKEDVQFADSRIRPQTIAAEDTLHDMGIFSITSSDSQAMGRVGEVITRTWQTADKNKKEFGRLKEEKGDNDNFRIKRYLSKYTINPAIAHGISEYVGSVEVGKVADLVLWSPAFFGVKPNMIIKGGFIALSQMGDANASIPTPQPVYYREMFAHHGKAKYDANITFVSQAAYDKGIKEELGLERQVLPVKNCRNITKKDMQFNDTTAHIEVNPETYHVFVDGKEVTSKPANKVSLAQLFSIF
T1 sequence (P14916 whole entry, further chain): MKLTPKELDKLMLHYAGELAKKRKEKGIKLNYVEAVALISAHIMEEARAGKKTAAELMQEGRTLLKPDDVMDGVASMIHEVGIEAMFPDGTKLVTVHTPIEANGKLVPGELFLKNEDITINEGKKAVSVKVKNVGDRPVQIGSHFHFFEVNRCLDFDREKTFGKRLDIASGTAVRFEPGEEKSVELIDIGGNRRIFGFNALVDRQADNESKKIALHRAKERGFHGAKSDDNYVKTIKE
T2 sequence (P14916 whole entry, looked up): as the sequence (P14916 whole entry, further chain) above
T2 sequence (P69996 whole entry, looked up): as the sequence (P69996 whole entry) above

## O=C(CN(c1cccc([N+](=O)[O-])c1)S(=O)(=O)c1cc(F)ccc1F)NO
[1]
  pIC50: 4.79
HepG2
  Activity: 89%
SGC-7901
  Activity: 92%
K562
  Activity: 88%

## O=C(CN(c1cccc([N+](=O)[O-])c1)S(=O)(=O)c1ccccc1F)NO
[1]
  pIC50: 5.16
HepG2
  Activity: 80%
SGC-7901
  Activity: 92%
K562
  Activity: 87%

## O=C(CN(c1cccc([N+](=O)[O-])c1)S(=O)(=O)c1cc(Cl)ccc1Cl)NO
[1]
  pIC50: 4.56
HepG2
  Activity: 80%
SGC-7901
  Activity: 81%
K562
  Activity: 84%

## O=C(CN(c1cccc([N+](=O)[O-])c1)S(=O)(=O)c1ccc(Br)cc1)NO
[1]
  pIC50: 6.89
HepG2
  Activity: 91%
SGC-7901
  Activity: 86%
K562
  Activity: 87%
[2]
  Ratio IC50: 200
[3]
  pKd: 9.47
[4]
  pKi: 7.19
[5]
  pKi: 5.92
[6]
  inhibition: Tde
[7]
  inhibition: Active

## O=C(CN(c1cccc([N+](=O)[O-])c1)S(=O)(=O)c1cccc(F)c1)NO
[1]
  pIC50: 6.13
HepG2
  Activity: 89%
SGC-7901
  Activity: 90%
K562
  Activity: 93%
[2]
  Ratio IC50: 35

## Cc1ccc(S(=O)(=O)N(CC(=O)NO)c2cccc([N+](=O)[O-])c2)cc1
[1]
  pIC50: 5.23
HepG2
  Activity: 80%
SGC-7901
  Activity: 84%
K562
  Activity: 86%

## O=C(CN(c1cccc([N+](=O)[O-])c1)S(=O)(=O)c1ccc(F)cc1)NO
[1]
  pIC50: 5.48
HepG2
  Activity: 91%
SGC-7901
  Activity: 90%
K562
  Activity: 92%

## Cc1ccccc1S(=O)(=O)N(CC(=O)NO)c1cccc([N+](=O)[O-])c1
[1]
  pIC50: 5.15
HepG2
  Activity: 87%
SGC-7901
  Activity: 90%
K562
  Activity: 90%

## O=C(CN(c1cccc([N+](=O)[O-])c1)S(=O)(=O)c1ccc(Cl)cc1)NO
[1]
  pIC50: 5.76
HepG2
  Activity: 86%
SGC-7901
  Activity: 89%
K562
  Activity: 88%

## CC(=O)NO [ACETOHYDROXAMIC ACID]
[1]
  pIC50: 4.58
HepG2
  Activity: 76%
SGC-7901
  Activity: 72%
K562
  Activity: 64%

## Cc1cc(C)c(S(=O)(=O)N(CC(=O)NO)c2cccc([N+](=O)[O-])c2)c(C)c1
[1]
  pIC50: 4.02
HepG2
  Activity: 87%
SGC-7901
  Activity: 85%
K562
  Activity: 94%

## O=C(CN(c1cccc([N+](=O)[O-])c1)S(=O)(=O)c1ccccc1)NO
[1]
  pIC50: 5.62
HepG2
  Activity: 83%
SGC-7901
  Activity: 79%
K562
  Activity: 76%

## O=C(CN(c1cccc([N+](=O)[O-])c1)S(=O)(=O)c1ccc(C(F)(F)F)cc1)NO
[1]
  pIC50: 5.02
HepG2
  Activity: 93%
SGC-7901
  Activity: 90%
K562
  Activity: 87%

## O=C(CN(c1cccc([N+](=O)[O-])c1)S(=O)(=O)c1ccccc1Cl)NO
[1]
  pIC50: 4.66
HepG2
  Activity: 93%
SGC-7901
  Activity: 90%
K562
  Activity: 91%
